Measured values reported in ChEMBL document CHEMBL1833872, “Improved synthesis and biological evaluation of chelator-modified α-MSH analogs prepared by copper-free click chemistry” (Bioorg Med Chem Lett, 2011).

Molecular target: Melanocyte-stimulating hormone receptor (Mus musculus, UniProt Q01727)
Experiment: Displacement of [125I]-[Nle4-D-Phe7]-alpha-MSH from MC1R in mouse B16-F10 cells after 1.5 hrs by gamma counting
Format: cell-based

Melanocyte-stimulating hormone receptor, sequence (Q01727 whole entry): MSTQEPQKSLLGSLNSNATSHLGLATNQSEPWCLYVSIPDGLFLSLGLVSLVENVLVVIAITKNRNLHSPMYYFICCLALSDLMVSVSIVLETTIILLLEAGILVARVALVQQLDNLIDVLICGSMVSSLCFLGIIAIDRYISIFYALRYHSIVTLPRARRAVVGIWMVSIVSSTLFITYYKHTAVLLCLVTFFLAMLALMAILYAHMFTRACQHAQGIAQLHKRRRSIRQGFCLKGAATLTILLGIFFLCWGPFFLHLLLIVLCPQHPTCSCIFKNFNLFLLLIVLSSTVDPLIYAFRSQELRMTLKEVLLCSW

Question: With `CCCC[C@H](NC(=O)[C@H](CO)NC(=O)[C@H](Cc1ccc(O)cc1)NC(=O)[C@H](CO)NCCCCCCN=[N+]=[N-])C(=O)N[C@@H](CCC(=O)O)C(=O)N[C@@H](Cc1cnc[nH]1)C(=O)N[C@H](Cc1ccccc1)C(=O)N[C@@H](CCCN=C(N)N)C(=O)N[C@@H](Cc1c[nH]c2ccccc12)C(=O)NCC(=O)N[C@@H](CCCCN)C(=O)N1CCC[C@H]1C(=O)N[C@H](C(N)=O)C(C)C` as the molecule, how does the IC50 read?
Answer: Its IC50 is 0.25 nM.
